# According to ChEMBL document CHEMBL4622979, “Non-rigid Diarylmethyl Analogs of Baloxavir as Cap-Dependent Endonuclease Inhibitors of Influenza Viruses” (J Med Chem, 2020):
# What was measured:
# [1] = AUClast in CD1 mouse small intestine assessed as (12aR)-12-(Diphenylmethyl)-7-hydroxy-3,4,12,12a-tetrahydro-1H-[1,4]oxazino[3,4-c]pyrido[2,1-f ][1,2,4]triazine-6,8-dione level at 15 mg/kg, po administered as single dose measured up to 24 hrs by LC-MS/MS analysis; assay type: ADME, organism-based; settings: in vivo
# [2] = Cmax in CD1 mouse heart assessed as (12aR)-12-(Diphenylmethyl)-7-hydroxy-3,4,12,12a-tetrahydro-1H-[1,4]oxazino[3,4-c]pyrido[2,1-f ][1,2,4]triazine-6,8-dione level at 15 mg/kg, po administered as single dose measured up to 24 hrs by LC-MS/MS analysis; assay type: ADME, organism-based; parameters: dose 15 mg/kg, route oral; settings: in vivo
# [3] = Ratio of AUClast in CD1 mouse kidney to plasma assessed as (12aR)-12-(Diphenylmethyl)-7-hydroxy-3,4,12,12a-tetrahydro-1H-[1,4]oxazino[3,4-c]pyrido[2,1-f ][1,2,4]triazine-6,8-dione level at 15 mg/kg, po administered as single dose measured up to 24 hrs by LC-MS/MS analysis; assay type: ADME, organism-based; settings: other tissue
# [4] = Cmax in CD1 mouse spleen assessed as (12aR)-12-(Diphenylmethyl)-7-hydroxy-3,4,12,12a-tetrahydro-1H-[1,4]oxazino[3,4-c]pyrido[2,1-f ][1,2,4]triazine-6,8-dione level at 15 mg/kg, po administered as single dose measured up to 24 hrs by LC-MS/MS analysis; assay type: ADME, organism-based; parameters: dose 15 mg/kg, route oral; settings: in vivo
# [5] = Ratio of AUClast in CD1 mouse blood to plasma assessed as (12aR)-12-(Diphenylmethyl)-7-hydroxy-3,4,12,12a-tetrahydro-1H-[1,4]oxazino[3,4-c]pyrido[2,1-f ][1,2,4]triazine-6,8-dione level at 15 mg/kg, po administered as single dose measured up to 24 hrs by LC-MS/MS analysis; assay type: ADME, organism-based; settings: in vivo
# [6] = Acute toxicity in CD1 mouse assessed as effect on intestine at 2000 mg/kg, po measured after 2 weeks by macroscopic analysis; assay type: organism-based; settings: in vivo, 336 h
# [7] = Ratio of AUClast in CD1 mouse spleen to plasma assessed as (12aR)-12-(Diphenylmethyl)-7-hydroxy-3,4,12,12a-tetrahydro-1H-[1,4]oxazino[3,4-c]pyrido[2,1-f ][1,2,4]triazine-6,8-dione level at 15 mg/kg, po administered as single dose measured up to 24 hrs by LC-MS/MS analysis; assay type: ADME, organism-based; settings: other tissue
# [8] = Oral bioavailability in CD1 mouse assessed as (12aR)-12-(Diphenylmethyl)-7-hydroxy-3,4,12,12a-tetrahydro-1H-[1,4]oxazino[3,4-c]pyrido[2,1-f ][1,2,4]triazine-6,8-dione level at 15 mg/kg administered as single dose by LC-MS/MS analysis; assay type: ADME, organism-based; settings: in vivo
# [9] = AUClast in CD1 mouse brain assessed as (12aR)-12-(Diphenylmethyl)-7-hydroxy-3,4,12,12a-tetrahydro-1H-[1,4]oxazino[3,4-c]pyrido[2,1-f ][1,2,4]triazine-6,8-dione level at 15 mg/kg, po administered as single dose measured up to 24 hrs by LC-MS/MS analysis; assay type: ADME, organism-based; settings: in vivo
# [10] = Cytotoxicity against human PBMC cells assessed as reduction in cell viability by ATP bioluminescence assay; assay type: cell-based
# [11] = MRTlast in CD1 mouse blood assessed as (12aR)-12-(Diphenylmethyl)-7-hydroxy-3,4,12,12a-tetrahydro-1H-[1,4]oxazino[3,4-c]pyrido[2,1-f ][1,2,4]triazine-6,8-dione level at 15 mg/kg, po administered as single dose measured up to 24 hrs by LC-MS/MS analysis; assay type: ADME, organism-based; settings: in vivo
# [12] = AUCinfinity in CD1 mouse plasma assessed as (12aR)-12-(Diphenylmethyl)-7-hydroxy-3,4,12,12a-tetrahydro-1H-[1,4]oxazino[3,4-c]pyrido[2,1-f ][1,2,4]triazine-6,8-dione level at 15 mg/kg, po administered as single dose measured up to 24 hrs by LC-MS/MS analysis; assay type: ADME, organism-based; parameters: dose 15 mg/kg, time infinity, route oral; settings: in vivo
# [13] = AUCinfinity in CD1 mouse trachea assessed as (12aR)-12-(Diphenylmethyl)-7-hydroxy-3,4,12,12a-tetrahydro-1H-[1,4]oxazino[3,4-c]pyrido[2,1-f ][1,2,4]triazine-6,8-dione level at 15 mg/kg, po administered as single dose measured up to 24 hrs by LC-MS/MS analysis; assay type: ADME, organism-based; parameters: dose 15 mg/kg, route oral, time infinity; settings: in vivo
# [14] = Ratio of AUClast in CD1 mouse liver to plasma assessed as (12aR)-12-(Diphenylmethyl)-7-hydroxy-3,4,12,12a-tetrahydro-1H-[1,4]oxazino[3,4-c]pyrido[2,1-f ][1,2,4]triazine-6,8-dione level at 15 mg/kg, po administered as single dose measured up to 24 hrs by LC-MS/MS analysis; assay type: ADME, organism-based; settings: other tissue
# [15] = Half life in CD1 mouse lung assessed as baloxavir acid level at 15 mg/kg, po administered as single dose measured up to 24 hrs by LC-MS/MS analysis; assay type: ADME, organism-based; settings: in vivo
# [16] = MRTlast in CD1 mouse muscle assessed as baloxavir acid level at 15 mg/kg, po administered as single dose measured up to 24 hrs by LC-MS/MS analysis; assay type: ADME, organism-based, Muscle tissue; settings: in vivo
# [17] = Ratio of AUClast in CD1 mouse spleen to plasma assessed as baloxavir acid level at 15 mg/kg, po administered as single dose measured up to 24 hrs by LC-MS/MS analysis; assay type: ADME, organism-based; settings: other tissue
# [18] = AUClast in CD1 mouse plasma assessed as baloxavir acid level at 15 mg/kg, po administered as single dose measured up to 24 hrs by LC-MS/MS analysis; assay type: ADME, organism-based; parameters: time < 24 hr, dose 15 mg/kg, route oral; settings: in vivo
# [19] = Ratio of AUClast in CD1 mouse lung to plasma assessed as baloxavir acid level at 15 mg/kg, po administered as single dose measured up to 24 hrs by LC-MS/MS analysis; assay type: ADME, organism-based; settings: other tissue
# [20] = Tmax in CD1 mouse heart assessed as baloxavir acid level at 15 mg/kg, po administered as single dose measured up to 24 hrs by LC-MS/MS analysis; assay type: ADME, organism-based; settings: in vivo
# [21] = Cmax in CD1 mouse spleen assessed as baloxavir acid level at 15 mg/kg, po administered as single dose measured up to 24 hrs by LC-MS/MS analysis; assay type: ADME, organism-based; parameters: dose 15 mg/kg, route oral; settings: in vivo
# [22] = Half life in CD1 mouse spleen assessed as baloxavir acid level at 15 mg/kg, po administered as single dose measured up to 24 hrs by LC-MS/MS analysis; assay type: ADME, organism-based; settings: in vivo
# [23] = AUClast in CD1 mouse blood assessed as baloxavir acid level at 15 mg/kg, po administered as single dose measured up to 24 hrs by LC-MS/MS analysis; assay type: ADME, organism-based; settings: in vivo
# [24] = MRTlast in CD1 mouse plasma assessed as baloxavir acid level at 15 mg/kg, po administered as single dose measured up to 24 hrs by LC-MS/MS analysis; assay type: ADME, organism-based; settings: in vivo
# [25] = Ratio of AUClast in CD1 mouse lung to plasma assessed as baloxavir acid level at 15 mg/kg, po administered as single dose by LC-MS/MS analysis; assay type: ADME, organism-based; settings: other tissue
# [26] = Elimination rate constant in CD1 mouse spleen assessed as baloxavir acid level at 15 mg/kg, po administered as single dose measured up to 24 hrs by LC-MS/MS analysis; assay type: ADME, organism-based; settings: in vivo
smiles,measurement,setting,value
COC(=O)OCOc1c2n(ccc1=O)N(C(c1ccccc1)c1ccccc1)[C@@H]1COCCN1C2=O,AUClast,[1],43656 ng·h/g
same,Cmax,[2],2537 ng/g
same,Ratio AUC,[3],5.5
same,Cmax,[4],1119 ng/g
same,Ratio AUC,[5],0.82
same,Activity,[6],Non-Toxic
same,Ratio AUC,[7],1.38
same,F,[8],62.1%
same,AUClast,[9],609 ng·h/g
same,CC50,[10],100 µM
same,MRTlast,[11],1.78 h
same,AUC,[12],3385 ng·h/mL
same,AUC,[13],10875 ng·h/g
same,Ratio AUC,[14],10.6
COC(=O)OCOc1c2n(ccc1=O)N([C@@H]1c3ccccc3SCc3c1ccc(F)c3F)[C@@H]1COCCN1C2=O [BALOXAVIR MARBOXIL],t1/2,[15],3.4 h
same,MRTlast,[16],3.35 h
same,Ratio AUC,[17],7.99
same,AUClast,[18],452 ng·h/mL
same,Ratio AUC,[19],21.1
same,Tmax,[20],2 h
same,Cmax,[21],388 ng/g
same,t1/2,[22],3.51 h
same,AUClast,[23],1381 ng·h/g
same,MRTlast,[24],2.57 h
same,Ratio AUC,[25],16.7
same,Kel,[26],0.2 h⁻¹
